The source made the active and inactive calls.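 How the source made its calls: active means compounds whose fitted half-maximal concentration in the cell-protection dose series is at or below a set limit; inactive means the rest.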
system: H9c2 cardiomyocytes, 2-deoxyglucose stress, ATP luminescence, 2 h; test: protection of cardiomyocytes from 2-deoxyglucose injury, dose response, cell-based, 2-deoxyglucose stress, uHTS hits (AID 588780)

Compound	IC50
CCC(=O)N1CCN(c2ccccc2NC(=O)COc2cc(C)ccc2C(C)C)CC1	11.5 µM
CCOC(=O)C1=C(COC(=O)c2cc(OC)c(OC)c(OC)c2)NC(=O)NC1C (stereo not drawn)	50 µM (inactive)
COc1ccc(CN(C)C(=O)C(Cc2ccccc2)NC(=O)c2ccccc2)cc1F (stereo not drawn)	7.05 µM
CN(C(=O)CSc1nc2c(c(=O)[nH]1)CCCC2)C1CCCCC1	> 79 µM (inactive)
Cc1cc(C)c(S(=O)(=O)N2CCN(C(=O)c3cc(=O)[nH]c4ccccc34)CC2)c(C)c1	19.3 µM
CCOc1ccc(C(=O)Nc2cccc(-c3nc4cccnc4o3)c2)cc1Cl	32.2 µM (inactive)
CC(=O)c1ccc(-c2[nH]c3ccccc3c2CCN2C(=O)c3ccccc3C2=O)cc1	> 79 µM (inactive)
COc1cc(NC(=O)c2ccco2)c(C(=O)OCC(=O)c2c[nH]c3ccccc23)cc1OC	7.59 µM
O=C(Nc1cccc(NC(=O)c2ccc([N+](=O)[O-])o2)c1)c1ccco1	> 79 µM (inactive)
O=C(O)c1nn(CCOc2ccc(Br)cc2)c(=O)c2ccccc12	> 79 µM (inactive)
Cc1cc(NC(=O)COc2nnc(-c3ccccc3)c3ccccc23)no1	> 79 µM (inactive)
COc1ccc(OC)c(NC(=O)COC(=O)c2c3c(nc4ccccc24)CCCC3)c1	> 79 µM (inactive)
COc1ccccc1NC(=O)COc1cccc2c1CCNC2=O	> 79 µM (inactive)
CC(NC(=O)Cn1nc(C(=O)O)c2ccccc2c1=O)c1ccccc1 (stereo not drawn)	> 79 µM (inactive)
O=C(COc1ccc(F)cc1)Nc1nc(-c2ccccn2)cs1	> 79 µM (inactive)
CN1CCN(Cc2nc3ccccc3c(=O)[nH]2)CC1	> 79 µM (inactive)
O=C(N/N=C\c1ccccn1)c1cccc(C(=O)N/N=C\c2ccccn2)n1	36 µM (inactive)
O=C(Nc1cccc(Cl)c1)c1nc[nH]c1C(=O)NCCCNC(=O)c1[nH]cnc1C(=O)Nc1cccc(Cl)c1	> 79 µM (inactive)
COc1cc(-c2ccc3oc(-c4ccsc4)cc(=O)c3c2)cc(OC)c1OC	> 79 µM (inactive)
c1ccc(N2CCOCC2)c(Nc2nc3ccccc3n3cnnc23)c1	23.4 µM
CC(C)(C)OC(=O)C[C@H]1C/C=C\C[C@H](CC(=O)N[C@H](CO)Cc2ccccc2)C(=O)N[C@H](Cc2ccccc2)COC1=O	20.5 µM
CC(=O)Nc1ccc(Nc2nc(-c3sc(NC(C)=O)nc3C)cs2)cc1	14.4 µM
Cc1cc(-c2nn3c(-c4ccccc4)nnc3s2)c2ccccc2n1	> 79 µM (inactive)
CCn1c(O)c(/C=N/N=C/c2ccccc2)c2ccc(C3=NNC(=O)CC3)cc21	> 79 µM (inactive)

Compound	IC50
Cc1nn(-c2ccccc2)c(Cl)c1C(=O)NNC(=O)c1ccccc1O	> 79 µM (inactive)
CCN1C(=O)[C@H]2[C@@H](c3ccc(-c4ccc(C(C)=O)cc4)cc3)N[C@@](C)(C(=O)OC)[C@H]2C1=O	> 79 µM (inactive)
CC(OC(=O)Cc1n[nH]c(=O)c2ccccc12)C(=O)Nc1cc(Cl)cc(Cl)c1 (stereo not drawn)	22.7 µM
CN(CC(=O)Nc1ccccc1Br)C(=O)Cn1[nH]c(=O)c2ccccc2c1=O	> 79 µM (inactive)
O=C(Nc1nc(-c2ccccn2)cs1)c1cccc(-n2cnnn2)c1	> 79 µM (inactive)
Cc1cc(-n2c(C)cc(C(=O)COc3ccc4ccc(=O)oc4c3)c2C)no1	> 79 µM (inactive)
CCOc1cc(/C=N/NC(N)=O)cc(Br)c1OCC(=O)Nc1cccc2ccccc12	> 79 µM (inactive)
C=CCc1ccccc1OCC(=O)N/N=C/c1ccc(OC(C)=O)cc1OC(C)=O	> 79 µM (inactive)
COc1cccc(OC)c1C(=O)Nc1cc(C)nn1-c1nc2ccccc2[nH]1	> 79 µM (inactive)
CC(=O)c1cccc(NC(=O)Nc2ccc3c(c2)N(C)C(=O)CS3)c1	> 79 µM (inactive)
Cc1sc2nc(SCC(=O)NCc3ccco3)[nH]c(=O)c2c1C	> 79 µM (inactive)
O=c1[nH]nc(-c2ccc(NCCCO)c([N+](=O)[O-])c2)c2ccccc12	> 79 µM (inactive)
C/C(=N\NC(=O)c1nnn(-c2nonc2N)c1CSc1ccc(C)cc1)c1cccnc1	> 79 µM (inactive)
CC(OC(=O)c1cc(-c2cccnc2)nc2ccccc12)C(=O)Nc1ccc2ccccc2c1 (stereo not drawn)	11 µM
CCOC(=O)N1CCN(C(=O)CSc2nc3ccccc3c(=O)n2-c2ccccc2)CC1	33.6 µM (inactive)
CCN(CC)S(=O)(=O)c1ccc(Nc2nc3ccccc3n3nnnc23)cc1	> 79 µM (inactive)
O=C(Cc1n[nH]c(=O)c2ccccc12)OCC(=O)c1ccccc1	> 79 µM (inactive)
CC(Oc1ccccc1)C(=O)Nc1nc(-c2ccccn2)cs1 (stereo not drawn)	> 79 µM (inactive)
CCn1ncc2c1C(=O)NC1c3ccccc3C(=O)N21 (stereo not drawn)	> 79 µM (inactive)
CCNC(=O)/C(C#N)=C/c1c(N(Cc2ccccc2)Cc2ccccc2)nc2ccccn2c1=O	24.6 µM
CCc1c(C)nc(Nc2nc(C)c3ccc(OC)cc3n2)[nH]c1=O	> 79 µM (inactive)
Cc1sc2nc(SCC(=O)N3CCCC3)[nH]c(=O)c2c1C	> 79 µM (inactive)
Cc1cccc(OCCn2nc(C(=O)O)c3ccccc3c2=O)c1	> 79 µM (inactive)
COc1ccccc1-c1cc2nc(-c3ccccc3)cc(N3CCN(C(=O)c4ccco4)CC3)n2n1	> 79 µM (inactive)

Compound	IC50
COc1ccc(Cl)cc1NC(=O)CN(C)C(=O)CCc1nc2ccccc2c(=O)[nH]1	> 79 µM (inactive)
Cc1ccc(C(=O)CSc2nc3ccccc3c(=O)[nH]2)cc1	> 79 µM (inactive)
CC(=O)Nc1cc(-c2ccc(C(=O)NC3CC3)cc2)cn2c(-c3cccc(C(C)=O)c3)cnc12	> 79 µM (inactive)
O=C(Nc1ccccc1)c1cccc2c(-c3cccnc3)coc12	> 79 µM (inactive)
CC(=O)NC(CCc1ccc(Cl)c(Cl)c1)c1cccc(O)c(=O)c1 (stereo not drawn)	> 79 µM (inactive)
COc1ccc(-c2oc3ncnc(NCCN4CCOCC4)c3c2-c2ccc(OC)cc2)cc1	34.3 µM (inactive)
COc1cc(OC)cc(C(=O)Nc2ccc(-c3nc4ccccc4o3)cc2)c1	> 79 µM (inactive)
COc1ccccc1CN(C(=O)CNC(=O)c1ccco1)C(C(=O)NCC1CCCO1)c1ccccc1 (stereo not drawn)	11.6 µM
O=C(COc1ccccc1[N+](=O)[O-])Nc1ccc(N2CCN(C(=O)c3cccs3)CC2)cc1	8.51 µM
CCN(CCO)c1ncnc2c1sc1nc(C(C)C)c3c(c12)CC(C)(C)OC3	> 79 µM (inactive)
CC1CCCC(C)N1C(=O)COC(=O)c1n[nH]c(=O)c2ccccc12 (stereo not drawn)	> 79 µM (inactive)
CSc1nc2ccc(S(=O)(=O)Nc3c(C)n(C)n(-c4ccccc4)c3=O)cc2s1	> 79 µM (inactive)
Cc1cc(C)c2ccc(NN)nc2c1O	> 79 µM (inactive)
CCOc1ccccc1Nc1nnc(SCc2nnc(-c3cc(OC)c(OC)c(OC)c3)o2)s1	11.1 µM
O=C(Nc1ccccc1)c1nc[nH]c1C(=O)NCCNC(=O)c1[nH]cnc1C(=O)Nc1ccccc1	> 79 µM (inactive)
COc1cc(-c2cc3nc(NCCc4ccc(S(N)(=O)=O)cc4)ccn3n2)cc(OC)c1OC	15.8 µM
COC(=O)c1c(C)[nH]c(O)c1C=Nc1ccc(Oc2ccccc2)cc1	> 79 µM (inactive)
CC1Nc2ncnc(N3CCN(c4ccccc4)CC3)c2N(Cc2ccc(Cl)cc2)C1=O (stereo not drawn)	12.7 µM
COc1ccc(N(CC(=O)Nc2cccc(C(C)=O)c2)S(=O)(=O)c2ccc(NC(C)=O)cc2)cc1	10.7 µM
Cn1c(/C=N/NC(=O)c2ccccc2)nc2ccccc21	> 79 µM (inactive)
COc1ccc(COc2cc(-c3cccc(OC)c3)nc3ccc(NC(=O)c4cccnc4)cc23)cc1	> 79 µM (inactive)
O=C(Nc1nc(-c2ccccn2)cs1)c1cc(S(=O)(=O)N2CCOCC2)ccc1F	> 79 µM (inactive)
CCOC(=O)CSc1nnc(CSc2nc3sc4c(c3c(=O)[nH]2)CCC4)n1C	> 79 µM (inactive)
Cc1ccc(S(=O)(=O)N2CCN(C(=O)CCc3nc4ccccc4c(=O)[nH]3)CC2)c(C)c1	> 79 µM (inactive)

Compound	IC50
CC(=O)c1ccc(-c2cnc3c(NC=O)cc(-c4cccc(NS(C)(=O)=O)c4)cn23)cc1	> 79 µM (inactive)
COc1ccc(-c2ccc3c(c2)S(=O)(=O)c2cccc(C(=O)N4CCN(c5c(Cl)cncc5Cl)CC4)c2C3=O)cc1OC	> 79 µM (inactive)
O=C(CN(C(=O)Cn1nnc(-c2cccs2)n1)c1cnc2ccccc2c1)NCC1CCCO1 (stereo not drawn)	> 79 µM (inactive)
O=c1c2ccccc2nc(-c2ccc(Cl)c(Cl)c2)n1O	8.16 µM
CCc1nc2ccc(C(=O)Nc3cc(-c4ccccc4)ccc3OC)cn2c1N(C)Cc1nccs1	9.62 µM
C/C(=N\NC(=O)c1c(Br)c(C)nn1C)c1ccc(NC(=O)c2ccoc2C)cc1	> 79 µM (inactive)
O=C(O)c1nn(CCOc2ccccc2F)c(=O)c2ccccc12	25.7 µM
Cc1nn(-c2ccccc2)nc1C(=O)Nc1cccc(C(=O)NC2CC2)c1	> 79 µM (inactive)
COc1cc(-c2cc(NC=O)c3ncc(-c4ccccc4)n3c2)cc(OC)c1OC	> 79 µM (inactive)
COc1cccc2cc(-c3cc(=O)oc4ccc(OCC(C)=O)cc34)oc12	> 79 µM (inactive)
COc1cccc(-c2nnc(NC(=O)c3ccc(S(=O)(=O)N(CC(C)C)CC(C)C)cc3)o2)c1	> 79 µM (inactive)
O=C(NCCN1CCOCC1)c1cnn2c(-c3ccccc3)cc(-c3ccccc3)nc12	18.5 µM
CCOC(=O)C1=C(C)N=c2s/c(=C\c3ccncc3)c(=O)n2C1c1ccc2c(c1)OCO2 (stereo not drawn)	41.1 µM (inactive)
CC(OC(=O)CCc1nc2ccccc2c(=O)[nH]1)C(=O)NC1CCCC1 (stereo not drawn)	57.3 µM (inactive)
O=c1[nH]nc(-c2ccc(NCCO)c([N+](=O)[O-])c2)c2ccccc12	> 79 µM (inactive)
CC1CCCC(C)N1C(=O)CSc1nc2ccccc2c(=O)[nH]1 (stereo not drawn)	> 79 µM (inactive)
CC(=O)c1ccccc1OCC(O)CN1CCN(CCN2C(=O)c3cccc4cccc(c34)C2=O)CC1 (stereo not drawn)	> 79 µM (inactive)
O=C(N/N=C/c1ccccn1)c1cccs1	> 79 µM (inactive)
O=CNc1cc(-c2ccc(C(=O)NC3CC3)cc2)cn2c(-c3ccc(F)c(Cl)c3)cnc12	> 79 µM (inactive)
Cn1c2ccccc2c(=O)c2ccc(NCc3ccc4c(c3)OCO4)cc21	8.06 µM
COc1ccc(Cl)cc1NC(=O)CCS(=O)(=O)c1cc2c(cc1C)NC(=O)CO2	21.5 µM

Reference: PubChem BioAssay AID588780 (Sanford-Burnham Center for Chemical Genomics, 2011)
